Measurements as given in ChEMBL document CHEMBL4350965 (J Med Chem, 2019).

Experiments:
[1] = Stability in rat liver microsomes assessed as parent compound remaining at 1 uM measured after 30 mins in presence of NADPH generating system
[2] = Stability in human liver microsomes assessed as parent compound remaining at 1 uM measured after 30 mins in presence of NADPH generating system
[3] = target: T1, Phosphatidylinositol 4,5-bisphosphate 3-kinase catalytic subunit delta isoform (Homo sapiens, UniProt O00329); test: Inhibition of PI3Kdelta in human Ramos cells assessed as reduction in antihuman IgM-stimulated AKT phosphorylation at Ser473 residue preincubated for 60 mins followed by antihuman IgM stimulation and measured after 15 mins; type: cell-based
T1 sequence (O00329 whole entry): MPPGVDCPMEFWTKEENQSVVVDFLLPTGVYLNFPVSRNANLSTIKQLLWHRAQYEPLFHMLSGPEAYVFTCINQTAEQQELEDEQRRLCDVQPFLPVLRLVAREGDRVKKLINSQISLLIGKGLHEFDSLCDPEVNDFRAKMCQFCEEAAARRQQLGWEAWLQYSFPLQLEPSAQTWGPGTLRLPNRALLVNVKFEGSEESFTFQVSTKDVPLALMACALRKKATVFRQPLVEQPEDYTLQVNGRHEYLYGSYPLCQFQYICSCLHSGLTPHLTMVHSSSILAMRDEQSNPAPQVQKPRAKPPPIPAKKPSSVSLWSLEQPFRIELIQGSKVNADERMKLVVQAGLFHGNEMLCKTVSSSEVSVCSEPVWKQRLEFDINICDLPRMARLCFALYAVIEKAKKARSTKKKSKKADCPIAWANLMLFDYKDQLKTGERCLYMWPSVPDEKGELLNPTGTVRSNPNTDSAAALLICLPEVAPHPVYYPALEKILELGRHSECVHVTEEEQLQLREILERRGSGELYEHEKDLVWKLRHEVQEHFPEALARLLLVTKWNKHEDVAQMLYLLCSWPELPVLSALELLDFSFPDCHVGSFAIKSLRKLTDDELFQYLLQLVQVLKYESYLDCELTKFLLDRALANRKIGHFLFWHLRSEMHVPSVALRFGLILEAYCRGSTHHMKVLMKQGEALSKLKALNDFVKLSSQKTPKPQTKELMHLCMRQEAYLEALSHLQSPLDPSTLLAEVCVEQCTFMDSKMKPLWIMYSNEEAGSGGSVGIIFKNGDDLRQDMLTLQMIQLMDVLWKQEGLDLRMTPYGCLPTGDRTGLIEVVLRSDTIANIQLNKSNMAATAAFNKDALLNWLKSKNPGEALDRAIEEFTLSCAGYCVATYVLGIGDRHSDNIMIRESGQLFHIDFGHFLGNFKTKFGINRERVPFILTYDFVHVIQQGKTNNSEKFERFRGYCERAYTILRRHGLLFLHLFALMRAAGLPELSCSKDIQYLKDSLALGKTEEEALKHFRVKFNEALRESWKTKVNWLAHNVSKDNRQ

[4] = Inhibition of PI3Kgamma in […] RAW264.7 cells assessed as reduction in C5a-stimulated AKT phosphorylation at Ser473 residue preincubated for 30 mins followed by C5a-stimulation and measured after 5 mins; type: cell-based
[5] = target: Phosphatidylinositol 4,5-bisphosphate 3-kinase catalytic subunit gamma isoform (Homo sapiens, UniProt P48736)
Sequence of Phosphatidylinositol 4,5-bisphosphate 3-kinase catalytic subunit gamma isoform (P48736 whole entry, canonical isoform): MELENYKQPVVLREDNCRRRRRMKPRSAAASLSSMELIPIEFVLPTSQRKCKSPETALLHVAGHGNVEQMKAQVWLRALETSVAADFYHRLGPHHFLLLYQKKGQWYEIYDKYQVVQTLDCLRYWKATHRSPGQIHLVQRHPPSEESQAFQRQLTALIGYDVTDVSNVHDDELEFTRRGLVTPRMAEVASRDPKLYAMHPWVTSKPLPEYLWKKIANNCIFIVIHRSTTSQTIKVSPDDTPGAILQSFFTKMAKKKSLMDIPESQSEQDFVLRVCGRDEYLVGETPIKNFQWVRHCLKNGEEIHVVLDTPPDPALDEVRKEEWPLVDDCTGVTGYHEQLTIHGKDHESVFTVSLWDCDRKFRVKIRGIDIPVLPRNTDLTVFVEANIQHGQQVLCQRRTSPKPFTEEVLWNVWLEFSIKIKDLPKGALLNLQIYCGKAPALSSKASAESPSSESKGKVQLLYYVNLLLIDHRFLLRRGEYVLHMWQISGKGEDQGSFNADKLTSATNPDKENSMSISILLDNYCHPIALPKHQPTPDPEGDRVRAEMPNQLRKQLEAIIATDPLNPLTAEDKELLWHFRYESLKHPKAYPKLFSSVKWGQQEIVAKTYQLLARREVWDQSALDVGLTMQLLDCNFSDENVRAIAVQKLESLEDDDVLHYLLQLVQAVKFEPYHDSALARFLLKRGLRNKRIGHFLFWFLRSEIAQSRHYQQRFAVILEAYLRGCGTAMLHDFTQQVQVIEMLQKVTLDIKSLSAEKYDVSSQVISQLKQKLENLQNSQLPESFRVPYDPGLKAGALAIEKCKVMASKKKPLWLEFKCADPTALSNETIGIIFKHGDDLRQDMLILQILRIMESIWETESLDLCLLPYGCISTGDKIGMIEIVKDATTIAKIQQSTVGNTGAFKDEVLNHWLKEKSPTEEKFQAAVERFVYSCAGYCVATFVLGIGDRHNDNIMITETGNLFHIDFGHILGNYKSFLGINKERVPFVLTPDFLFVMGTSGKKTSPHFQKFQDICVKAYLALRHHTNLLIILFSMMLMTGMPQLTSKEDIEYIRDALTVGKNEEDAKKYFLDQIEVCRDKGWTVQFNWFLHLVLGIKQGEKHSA
Description: Inhibition of recombinant human full-length His-tagged PI3K p110gamma expressed in baculovirus expression system using PIP2 as substrate measured after 80 mins by transcreener fluorescence polarization assay

[6] = Drug metabolism in human liver microsomes assessed as oxidation of pyrrolidine linker at 1 uM measured after 30 mins in presence of NADPH-generating system; type: ADME, Microsome; details: 0.5 h
[7] = target: T2, PI3K p110 beta/p85 alpha (Homo sapiens, UniProt P42338); test: Inhibition of N-terminal His6-tagged recombinant full length human p110beta/untagged recombinant full length human p85alpha expressed in baculovirus infected Sf21 insect cells at 1 uM using PIP2 as substrate measured after 80 mins by transcreener fluorescence polarization assay relative to control
T2 sequence (P27986 whole entry): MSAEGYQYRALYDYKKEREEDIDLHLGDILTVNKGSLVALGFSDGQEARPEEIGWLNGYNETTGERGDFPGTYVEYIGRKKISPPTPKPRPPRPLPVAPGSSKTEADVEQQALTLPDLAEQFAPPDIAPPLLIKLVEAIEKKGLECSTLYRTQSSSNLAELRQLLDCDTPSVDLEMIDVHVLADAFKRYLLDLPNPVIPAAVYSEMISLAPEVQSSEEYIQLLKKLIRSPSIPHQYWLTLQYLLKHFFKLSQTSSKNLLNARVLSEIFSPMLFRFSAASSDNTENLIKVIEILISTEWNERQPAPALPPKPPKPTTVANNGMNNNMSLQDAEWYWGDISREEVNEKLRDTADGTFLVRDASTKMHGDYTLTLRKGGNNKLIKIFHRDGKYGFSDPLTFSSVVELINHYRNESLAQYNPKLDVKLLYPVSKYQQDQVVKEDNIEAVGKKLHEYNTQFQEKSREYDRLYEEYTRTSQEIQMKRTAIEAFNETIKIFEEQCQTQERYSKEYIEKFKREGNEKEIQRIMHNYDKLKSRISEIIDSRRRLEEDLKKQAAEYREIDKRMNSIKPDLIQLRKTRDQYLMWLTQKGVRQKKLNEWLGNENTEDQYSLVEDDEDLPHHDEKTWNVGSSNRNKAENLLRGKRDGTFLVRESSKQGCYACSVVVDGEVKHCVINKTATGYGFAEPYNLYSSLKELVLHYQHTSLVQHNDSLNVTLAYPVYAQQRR
T2 sequence (P42338 whole entry): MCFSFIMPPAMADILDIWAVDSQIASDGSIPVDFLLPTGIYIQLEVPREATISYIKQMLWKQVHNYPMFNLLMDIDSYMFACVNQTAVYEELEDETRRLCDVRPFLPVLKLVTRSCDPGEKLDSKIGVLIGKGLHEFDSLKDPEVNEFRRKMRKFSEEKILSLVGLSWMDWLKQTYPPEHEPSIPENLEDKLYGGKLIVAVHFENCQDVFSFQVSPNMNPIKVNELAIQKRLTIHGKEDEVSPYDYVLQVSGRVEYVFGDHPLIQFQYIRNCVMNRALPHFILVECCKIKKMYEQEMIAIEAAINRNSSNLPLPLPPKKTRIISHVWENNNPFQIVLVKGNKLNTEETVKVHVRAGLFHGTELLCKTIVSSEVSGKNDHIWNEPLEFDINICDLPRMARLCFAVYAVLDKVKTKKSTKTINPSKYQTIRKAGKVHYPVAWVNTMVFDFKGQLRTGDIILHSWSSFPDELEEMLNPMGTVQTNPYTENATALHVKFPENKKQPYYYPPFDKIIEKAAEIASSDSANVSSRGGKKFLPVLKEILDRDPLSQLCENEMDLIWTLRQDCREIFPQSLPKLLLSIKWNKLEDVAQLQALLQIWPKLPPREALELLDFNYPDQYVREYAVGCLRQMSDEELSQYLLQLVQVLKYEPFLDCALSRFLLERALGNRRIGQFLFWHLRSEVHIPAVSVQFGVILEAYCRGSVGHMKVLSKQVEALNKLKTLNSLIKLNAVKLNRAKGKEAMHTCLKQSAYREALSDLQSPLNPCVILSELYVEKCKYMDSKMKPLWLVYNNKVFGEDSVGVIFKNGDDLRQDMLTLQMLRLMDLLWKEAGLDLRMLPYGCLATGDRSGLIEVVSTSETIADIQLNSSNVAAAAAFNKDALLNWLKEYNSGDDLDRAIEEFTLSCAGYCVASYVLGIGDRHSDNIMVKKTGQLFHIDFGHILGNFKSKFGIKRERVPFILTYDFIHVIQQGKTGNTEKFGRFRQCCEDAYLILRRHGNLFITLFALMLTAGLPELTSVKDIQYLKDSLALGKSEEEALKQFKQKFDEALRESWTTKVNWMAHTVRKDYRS

[8] = test system: liver microsomes (Homo sapiens / Mus musculus); test: Drug metabolism in human and mouse liver microsomes assessed as oxidation of pyrrolidine linker at 1 uM measured after 30 mins in presence of NADPH-generating system; details: 0.5 h
[9] = target: T2, PI3K p110 beta/p85 alpha; test: Inhibition of N-terminal His6-tagged recombinant full length human p110beta/untagged recombinant full length human p85alpha expressed in baculovirus infected Sf21 insect cells using PIP2 as substrate measured after 80 mins by transcreener fluorescence polarization assay
[10] = Inhibition of PI3Kdelta in rat whole blood assessed as reduction in anti-IgD-stimulated CD86 expression on B-cells preincubated for 60 mins followed by anti-IgD stimulation and measured after overnight incubation by flow cytometry; type: tissue-based

Structure (SMILES)	remaining at 0.5 h, 1 µM [1] [%]	remaining at 0.5 h, 1 µM [2] [%]	IC50 [3] [nM]	IC50 [4] [nM]	inhibition at 1 µM [7] [%]	other results
CC(=O)c1c[nH]c2ncnc(N3C[C@@H](F)C[C@H]3c3nn4ccc(Cl)c4c(=O)n3-c3ccccc3)c12	60.4	20.1				
CC(=O)c1c[nH]c2ncnc(N3CCC[C@H]3c3nn4ccc(Cl)c4c(=O)n3-c3cccc(F)c3)c12		11.7	3	7		
Nc1ncc(Cl)c(N2CC[C@H]2c2nn3ccc(Cl)c3c(=O)n2-c2ccccc2)n1					22.9	
Nc1ncc(C(=O)C(F)(F)F)c(N2CC[C@H]2c2nn3ccc(Cl)c3c(=O)n2-c2ccccc2)n1						IC50 [9]: > 1000 nM
O=c1c2c(Cl)ccn2nc([C@@H]2C[C@H](F)CN2c2ncnc3[nH]cnc23)n1-c1ccccc1	43.8		1	20		
N#Cc1cnc(N)nc1N1CCC[C@H]1c1nn2ccc(Cl)c2c(=O)n1-c1ccccc1	23.5		3	22		
C#Cc1cnc(N)nc1N1CC[C@H]1c1nn2ccc(Cl)c2c(=O)n1-c1ccccc1					22.7	

More lines, main results first:

remaining at 0.5 h, 1 µM [1] [%]	remaining at 0.5 h, 1 µM [2] [%]	IC50 [3] [nM]	IC50 [4] [nM]	inhibition at 1 µM [7] [%]	Structure (SMILES)	other results
19.1	2.8	3	40	47.7	N#Cc1c[nH]c2ncnc(N3CCC[C@H]3c3nn4cccc4c(=O)n3-c3ccccc3)c12	IC50 [5]: 19 nM; Drug metabolism [6]: Metabolite_Detected; Drug metabolism [8]: Metabolite_Detected
34.6	64.3		8	54.8	O=c1c2c(Cl)ccn2nc([C@@H]2CCCN2c2ncnc3[nH]cnc23)n1-c1cccc(F)c1	
			25		C[C@H](Nc1ncnc2nc[nH]c12)c1cc2cccc(Cl)c2c(=O)n1-c1ccccc1 [DUVELISIB]	IC50 [10]: 2 nM
			337		CC[C@H](Nc1ncnc2[nH]cnc12)c1nc2cccc(F)c2c(=O)n1-c1ccccc1 [IDELALISIB]	
